# Measurements taken from US8703824B2, “Cationic amphiphiles with mannose-mimicking head-groups and a process for the preparation thereof” (Council of Scientific & Industrial Research, priority 2010, dated 2014).
# Experiments:
# NIH3T3 cells = experiment: Transfection of NIH3T3 cells (no mannose receptor) in presence and absence of mannan; assay type: cell-based, murine; conditions: DOPE as co-lipid, lipid:DNA ratio 8:1 to 1:1, 50 μg mannan, FIGS. 6-8
# Method: (§1) Cells were seeded at a density of 25000 (for RAW 264.7) per well in a 96-well plate for 18-24 h before the transfection. 0.3 μg (0.9 nmol) of plasmid DNA was complexed with varying amounts of lipids (1 nmol-8 nmol) in serum free medium (total volume made up to 100 μL) for 30 minutes. The charge ratios were varied from 1:1 to 8:1 over these ranges of the lipids. Immediately prior to transfection, cells plated in the 96-well plate were washed with PBS (2×100 μL) followed by the addition of lipoplexes. After 4 h of incubation, the medium was replaced with fresh complete medium containing 10% FBS. The luciferase reporter gene activity was estimated after 24 h. The cells were washed twice with PBS (100 pt each) and lysed in 50 μL lysis buffer. Care was taken to ensure complete lysis. 10 μL Promega luciferase assay buffer was added to the 5 μL lysate in a polystyrene plate and the luciferase activity per well was estimated using a FLx800 microplate luminescence reader (Bio-Tek instruments, INC, UK). Protein concentration in each well was determined by the modified Lowry method (Lundqvist A, et al. J Immunother. 2002, 25, 445-454) and the luciferase activity was expressed as the relative light unit (RLU) per mg of the protein.
# (§2) Each transfection experiment was repeated two times on two different days. The transfection values reported were average values from two replicate transfection plates assayed on the same day. When mannan was used, the cells were pretreated for 30 mins at 37° C., 5% CO2 with mannan (50 μg), and the transfection was carried out in its presence. After 4 h at 37° C., the medium was replaced with fresh complete medium without mannan and the transfection activity was evaluated after 24 h as described above.
# [1] = Dendritic cell based genetic immunization (s.c. pre-transfected mbmDCs), anti β-gal antibody ELISA; assay type: in vivo, C57BL/6J mice; conditions: s.c. 5×10^5 pre-transfected mbmDCs twice with 7-day interval; sera two weeks after second immunization; Part A, FIG. 13
# Method: The transfected mbmDCs were harvested by DC isolation protocol described above and washed with PBS (2×100 μL). The cells were resuspended in HBSS medium at 5×10^5 cells/100 μL. 6-8 weeks old female C57BL/6J mice (n=5, each weighing 20-22 g) were immunized (s.c.) with 100 μL of transfected mbmDCs (˜5×10^5 cells) twice with a 7-day interval. Two weeks after the second immunization, mice were sacrificed and sera & spleens were collected for immune response assays.
# Anti-β-gal antibodies were measured using an enzyme linked immunosorbent (ELISA) assay as described earlier (McKeever, U. et al. Vaccine 2002; 20:1524-1531). Briefly, 96 well ELISA plates were coated with β-gal protein (0.3 μg per well) using a 5 μg/mL stock solution prepared in PBS. Plates were washed with PBS (3×200 μL) and blocked with 1% BSA in PBS at room temperature for 2 h. The plates were then washed with PBS containing 0.05% Tween-20 (3×200 μL) and incubated with mouse sera (100 μL) at room temperature for 2 h. The plates were again washed with PBS containing 0.05% Tween-20 (3×200 μL) and 100 μL of diluted (1:1000) anti-mouse antibody conjugated to horse radish peroxidase was added to each well. […] The plates were then incubated in dark with 100 μL of ABTS (Calbiochem, USA) per well at 25° C. for 10 min and the absorbance was measured at 405 nm by ELISA reader (Bio-Tek instruments Inc, UK).
# RAW 264.7 cells [2] = experiment: Reporter gene (luciferase) expression assay, lipoplex transfection of RAW 264.7 cells; assay type: cell-based, murine; conditions: for in vitro transfection efficiencies relative to control mannosylated lipid 3: DOPE as co-lipid, lipid:DNA charge ratios 2:1 to 8:1, FIG. 4; for transfection efficiencies with DOPC as co-lipid compared to DOPE as co-lipid: lipid:DNA charge ratio of 8:1, FIG. 5
# Method: The liposomes were prepared by the conventional method. Briefly, cationic lipids and co-lipids (Cholesterol, DOPE, DOPC) at 2:1 molar ratios were dissolved in chloroform. The solvent was then evaporated under a thin stream of nitrogen gas, vacuum dried for 8 h and hydrated in deionised water overnight to give a final lipid concentration of 1 mM for in vitro experiments or 5 mM for in vivo experiments. The hydrated lipid film was first vortexed for 30 seconds and then sonicated until clarity using a Branson 450 sonifier at 100% duty cycle and 25 W output power. The resulting clear aqueous liposomes were used in preparing lipoplexes.
# as §1, §2
# RAW 264.7 cells [3] = experiment: Mannose receptor specific transfection of RAW 264.7 cells in presence and absence of mannan; assay type: cell-based, murine; conditions: DOPE as co-lipid; lipid:DNA ratio 8:1 to 1:1; 50 μg mannan; FIGS. 6-8
# Method: as §1, §2
# [4] = system: mouse bone marrow derived dendritic cells; experiment: DC-transfection with pα5GFP lipoplexes, flow cytometric analysis of GFP expression; assay type: cell-based, C57BL/6J mice; conditions: mbmDCs; for efficacies in delivering genes to dendritic cells relative to mannosyl analog 3: flow cytometry (FIG. 11) and fluorescence microscopy (FIG. 12)
# Method: Primary mbmDCs were isolated using a previously described procedure (Inaba K, et al. J Exp Med 1992; 176:1693-1702). Briefly, bone marrow collected from tibias and fibulas of male C57BL/6 mice was passed through a nylon mesh to remove bone and debris, and resuspended in complete DC medium (RPMI-1640 containing 10% FBS, 50 μM β-mercaptoethanol, 2 mM glutamine, 1% NEAA, 20 ng/mL GM-CSF and 10 ng/mL IL-4, 1% antibiotic solution). Cells were supplemented with fresh DC medium every two days. After 6 days, the aggregated cells were dislodged by gently pipetting RPMI over the adherent stroma. The dislodged cells were pulled together and centrifuged at 280 g for […] at room temperature. The supernatant was discarded. The pellets were first resuspended in complete DC medium at 1×10^6 cells/mL and finally placed in 100 mm cell culture petri dishes at 1×10^7 cells/dish in 10 mL medium per dish. After 24 h, the nonadherent cells were collected by gently swirling the dish and were used for transfection and flow cytometry experiments. Cultures were maintained in a humidified atmosphere with 5% CO2 at 37° C.
# First, the transfection efficiency of the lipids 1, 2 & 3 were evaluated in mouse bone marrow derived dendritic cells. To this end, the immature dendritic cells were isolated from the bone marrow of C57BL/6J mice by culturing with GM-CSF and IL-4 following the protocol described above. […] The profiles of the DC markers were monitored by flow cytometry. […] After confirming the presence of these expected DC markers on the surface of the isolated DCs, the transfection efficiencies of the cationic amphiphiles 1, 2 & 3 were evaluated in mbmDCs. […] Lipoplexes containing 3 μg of plasmid DNA encoding green fluorescence protein (pα5GFP) and 8 nmol cationic amphiphiles 1, 2 & 3 were added to the cells and incubated for 4 h at 37° C. in serum free medium with 5% CO2. […] The transfection efficiencies of the cationic amphiphiles 1, 2 & 3 were measured by Flow cytometric analysis.
Substance,transfection efficiency when cells were pretreated with mannan (NIH3T3 cells),anti β-gal antibody responses relative to mannosyl analog 3 [1],in vitro transfection efficiencies relative to control mannosylated lipid 3 (RAW 264.7 cells [2]),transfection efficiencies with DOPC as co-lipid compared to DOPE as co-lipid (RAW 264.7 cells [2]),transfection efficiencies when cells were pretreated with mannan (RAW 264.7 cells [3]),efficacies in delivering genes to dendritic cells relative to mannosyl analog 3 [4],"DC transfection efficiency (GFP expression by FACS) ([4]; 3 μg pα5GFP plasmid, 8 nmol cationic amphiphile, FIG. 11)"
"2-[(N,N-di-n-hexadecyl-N-methyl)amino]-ethylL-L-lysyl-quinate chloride [lipid 2]",did not get affected,higher anti β-gal antibody responses,higher in vitro transfection efficiencies than their control mannosylated lipid 3,enhanced further,significantly diminished,superior to those of their mannosyl analog 3,
"2-[(N,N-di-n-hexadecyl-N-methyl)amino]-ethylL-L-lysyl-shikimate chloride [lipid 1]",did not get affected,higher anti β-gal antibody responses,higher in vitro transfection efficiencies than their control mannosylated lipid 3,enhanced further,significantly diminished,superior to those of their mannosyl analog 3,
"2-[(N,N-di-n-hexadecyl-N-methyl)amino]-ethylL-L-lysyl-β-D-Mannoside chloride [lipid 3, reference compound]",did not get affected,,,enhanced further,significantly diminished,,5%
